Holding throughout (experiment): relative viability (nuclei count vs DMSO), 5 days (fraction); higher = more cells survive
Compound in the assay “GW-2580 + Foretinib”: COC1=CC=C(C=C1)COC2=C(C=C(C=C2)CC3=CN=C(N=C3N)N)OC [GW-2580] + COc1cc2c(Oc3ccc(NC(=O)C4(C(=O)Nc5ccc(F)cc5)CC4)cc3F)ccnc2cc1OCCCN1CCOCC1 [Foretinib] (partner 0.25 µM)
A digest of the protocol: (§1)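 For relative viability, nuclei counts in treated wells were divided by those in vehicle wells. Lung cancer cell lines had been pin-tool dosed in 1536-well plates the day after seeding and cultured for 5 days, then fixed and stained in one step (final 0.05% Triton X-100, 1% formaldehyde, 1 ug/ml Hoechst) and imaged at 4×. Doses were one drug alone or a fixed anchor-drug dose plus five library-drug doses (not always all listed) in √10 steps, and values are duplicate-plate medians.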

Compound in the assay “Fedratinib + Palbociclib”: Cc1cnc(Nc2ccc(OCCN3CCCC3)cc2)nc1Nc1cccc(S(=O)(=O)NC(C)(C)C)c1 [Fedratinib] + CC(=O)c1c(C)c2cnc(Nc3ccc(N4CCNCC4)cn3)nc2n(C2CCCC2)c1=O [Palbociclib] (partner 0.5 µM)
The procedure, abridged: as §1

Compound in the assay “Fedratinib + Olaparib”: Cc1cnc(Nc2ccc(OCCN3CCCC3)cc2)nc1Nc1cccc(S(=O)(=O)NC(C)(C)C)c1 [Fedratinib] + O=C(c1cc(Cc2n[nH]c(=O)c3ccccc23)ccc1F)N1CCN(C(=O)C2CC2)CC1 [Olaparib] (partner 8 µM)
A digest of the protocol: as §1

Compound in the assay “Fedratinib + Trametinib”: Cc1cnc(Nc2ccc(OCCN3CCCC3)cc2)nc1Nc1cccc(S(=O)(=O)NC(C)(C)C)c1 [Fedratinib] + CC(=O)Nc1cccc(-n2c(=O)n(C3CC3)c(=O)c3c(Nc4ccc(I)cc4F)n(C)c(=O)c(C)c32)c1 [Trametinib] (partner 0.02 µM)
The procedure, abridged: as §1

Compound in the assay “Fedratinib + Pictilisib”: Cc1cnc(Nc2ccc(OCCN3CCCC3)cc2)nc1Nc1cccc(S(=O)(=O)NC(C)(C)C)c1 [Fedratinib] + CS(=O)(=O)N1CCN(Cc2cc3nc(-c4cccc5[nH]ncc45)nc(N4CCOCC4)c3s2)CC1 [Pictilisib] (partner 1 µM)
A digest of the protocol: as §1

Compound in the assay “GW-2580 + Palbociclib”: COC1=CC=C(C=C1)COC2=C(C=C(C=C2)CC3=CN=C(N=C3N)N)OC [GW-2580] + CC(=O)c1c(C)c2cnc(Nc3ccc(N4CCNCC4)cn3)nc2n(C2CCCC2)c1=O [Palbociclib] (partner 0.5 µM)
The procedure, abridged:
as §1

Among the data in the supplement of paper PMC10307832 are relative viability values, retold here.

NCI-H1975: the relative viability was found to be 0.965 with GW-2580 + Foretinib (first compound 0.08 µM); 1.03 with GW-2580 + Foretinib (first compound 0.8 µM); 0.939 in the assay with GW-2580 + Foretinib (first compound 2.53 µM); 0.803 with GW-2580 + Foretinib (first compound 8 µM); 0.644 in the assay with Fedratinib + Palbociclib (first compound 0.1 µM); 0.304 with Fedratinib + Palbociclib (first compound 0.3162 µM). Further, the relative viability came out at 0.413 with Fedratinib + Palbociclib (first compound 1 µM); 0.814 in the assay with Fedratinib + Olaparib (first compound 0.1 µM); 0.841 with Fedratinib + Olaparib (first compound 0.3162 µM); 0.613 with Fedratinib + Olaparib (first compound 1 µM); 0.344 with Fedratinib + Trametinib (first compound 0.1 µM); 0.234 with Fedratinib + Trametinib (first compound 0.3162 µM). The relative viability worked out at 0.304 in the assay with Fedratinib + Trametinib (first compound 1 µM); 0.301 with Fedratinib + Pictilisib (first compound 0.1 µM); 0.315 with Fedratinib + Pictilisib (first compound 0.3162 µM); 0.15 with Fedratinib + Pictilisib (first compound 1 µM); 0.738 in the assay with GW-2580 + Palbociclib (first compound 0.08 µM); 0.944 with GW-2580 + Palbociclib (first compound 0.8 µM). The relative viability with GW-2580 + Palbociclib (first compound 2.53 µM) came out at 0.524; in the assay with GW-2580 + Palbociclib (first compound 8 µM), 0.586.

NCI-H1993: the relative viability is 0.921 with GW-2580 + Foretinib (first compound 0.08 µM); 0.765 with GW-2580 + Foretinib (first compound 0.8 µM); 0.686 with GW-2580 + Foretinib (first compound 2.53 µM); 0.746 with GW-2580 + Foretinib (first compound 8 µM); 0.654 with Fedratinib + Palbociclib (first compound 0.1 µM); 0.63 with Fedratinib + Palbociclib (first compound 0.3162 µM). In addition, the relative viability with Fedratinib + Palbociclib (first compound 1 µM) was 0.906; with Fedratinib + Olaparib (first compound 0.1 µM), 0.949; in the assay with Fedratinib + Olaparib (first compound 0.3162 µM) it was 1.01; in the assay with Fedratinib + Olaparib (first compound 1 µM), 0.839; with Fedratinib + Trametinib (first compound 0.1 µM), 0.547; in the assay with Fedratinib + Trametinib (first compound 0.3162 µM), 0.419. Besides, the relative viability with Fedratinib + Trametinib (first compound 1 µM) turned out to be 0.421; in the assay with Fedratinib + Pictilisib (first compound 0.1 µM), 0.779; with Fedratinib + Pictilisib (first compound 0.3162 µM), 0.872; in the assay with Fedratinib + Pictilisib (first compound 1 µM) it was 0.771; with GW-2580 + Palbociclib (first compound 0.08 µM), 0.744; in the assay with GW-2580 + Palbociclib (first compound 0.8 µM) it was 0.748. Moreover, the relative viability in the assay with GW-2580 + Palbociclib (first compound 2.53 µM) turned out to be 0.563; with GW-2580 + Palbociclib (first compound 8 µM) it was 0.647.

As to NCI-H2009, the relative viability with GW-2580 + Foretinib (first compound 0.08 µM) was 1.31; with GW-2580 + Foretinib (first compound 0.8 µM), 1.25; with GW-2580 + Foretinib (first compound 2.53 µM) it was 1.21; in the assay with GW-2580 + Foretinib (first compound 8 µM), 1.17; with Fedratinib + Palbociclib (first compound 0.1 µM) it was 0.185; with Fedratinib + Palbociclib (first compound 0.3162 µM), 0.254. Besides, the relative viability with Fedratinib + Palbociclib (first compound 1 µM) turned out to be 0.161; with Fedratinib + Olaparib (first compound 0.1 µM), 0.692; with Fedratinib + Olaparib (first compound 0.3162 µM), 0.694; with Fedratinib + Olaparib (first compound 1 µM) it was 0.649; with Fedratinib + Trametinib (first compound 0.1 µM), 0.204; with Fedratinib + Trametinib (first compound 0.3162 µM), 0.286. The relative viability with Fedratinib + Trametinib (first compound 1 µM) is 0.216; with Fedratinib + Pictilisib (first compound 0.1 µM) it was 0.699; with Fedratinib + Pictilisib (first compound 0.3162 µM) it was 0.919; in the assay with Fedratinib + Pictilisib (first compound 1 µM) it was 0.143; with GW-2580 + Palbociclib (first compound 0.08 µM), 0.193; with GW-2580 + Palbociclib (first compound 0.8 µM), 0.179. In addition, the relative viability with GW-2580 + Palbociclib (first compound 2.53 µM) turned out to be 0.212; with GW-2580 + Palbociclib (first compound 8 µM) it was 0.248.

Consider NCI-H2023, for which the relative viability came out at 0.735 with GW-2580 + Foretinib (first compound 0.08 µM); 1.02 with GW-2580 + Foretinib (first compound 0.8 µM); 0.841 with GW-2580 + Foretinib (first compound 2.53 µM); 0.779 in the assay with GW-2580 + Foretinib (first compound 8 µM); 0.391 with Fedratinib + Palbociclib (first compound 0.1 µM); 0.356 with Fedratinib + Palbociclib (first compound 0.3162 µM). Besides, the relative viability with Fedratinib + Palbociclib (first compound 1 µM) is 0.248; in the assay with Fedratinib + Olaparib (first compound 0.1 µM), 0.533; with Fedratinib + Olaparib (first compound 0.3162 µM), 0.488; with Fedratinib + Olaparib (first compound 1 µM) it was 0.44; with Fedratinib + Trametinib (first compound 0.1 µM) it was 0.588; with Fedratinib + Trametinib (first compound 0.3162 µM), 0.626. Also, the relative viability with Fedratinib + Trametinib (first compound 1 µM) was found to be 0.488; in the assay with Fedratinib + Pictilisib (first compound 0.1 µM), 0.245; with Fedratinib + Pictilisib (first compound 0.3162 µM) it was 0.246; with Fedratinib + Pictilisib (first compound 1 µM), 0.0814; in the assay with GW-2580 + Palbociclib (first compound 0.08 µM), 0.398; in the assay with GW-2580 + Palbociclib (first compound 0.8 µM), 0.477. The relative viability with GW-2580 + Palbociclib (first compound 2.53 µM) was determined as 0.368; with GW-2580 + Palbociclib (first compound 8 µM), 0.31.
